Test [1] addresses T1, human M1 receptor (Homo sapiens, UniProt P11229).
T1 construct: made in house; host or cells: Sf9 insect cells (baculovirus)
T1 sequence (P11229 1-460): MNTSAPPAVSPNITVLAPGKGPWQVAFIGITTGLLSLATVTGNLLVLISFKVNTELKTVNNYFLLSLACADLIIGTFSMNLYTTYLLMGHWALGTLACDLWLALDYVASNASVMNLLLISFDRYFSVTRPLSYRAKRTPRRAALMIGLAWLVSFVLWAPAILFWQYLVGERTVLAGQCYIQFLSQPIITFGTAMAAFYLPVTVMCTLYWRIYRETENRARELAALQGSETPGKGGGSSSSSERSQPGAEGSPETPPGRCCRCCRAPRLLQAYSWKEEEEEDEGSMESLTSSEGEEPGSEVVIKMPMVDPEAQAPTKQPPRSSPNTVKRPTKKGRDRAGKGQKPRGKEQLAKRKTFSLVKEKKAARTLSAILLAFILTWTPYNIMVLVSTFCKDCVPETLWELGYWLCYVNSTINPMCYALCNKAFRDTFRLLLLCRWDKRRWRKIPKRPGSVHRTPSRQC
Description: biochemical. It counts as binding.

For test [2], the target named is T2, human M2 receptor (Homo sapiens, UniProt P08172).
T2 construct: made in house; host or cells: Sf9 insect cells (baculovirus)
T2 sequence (P08172 1-466): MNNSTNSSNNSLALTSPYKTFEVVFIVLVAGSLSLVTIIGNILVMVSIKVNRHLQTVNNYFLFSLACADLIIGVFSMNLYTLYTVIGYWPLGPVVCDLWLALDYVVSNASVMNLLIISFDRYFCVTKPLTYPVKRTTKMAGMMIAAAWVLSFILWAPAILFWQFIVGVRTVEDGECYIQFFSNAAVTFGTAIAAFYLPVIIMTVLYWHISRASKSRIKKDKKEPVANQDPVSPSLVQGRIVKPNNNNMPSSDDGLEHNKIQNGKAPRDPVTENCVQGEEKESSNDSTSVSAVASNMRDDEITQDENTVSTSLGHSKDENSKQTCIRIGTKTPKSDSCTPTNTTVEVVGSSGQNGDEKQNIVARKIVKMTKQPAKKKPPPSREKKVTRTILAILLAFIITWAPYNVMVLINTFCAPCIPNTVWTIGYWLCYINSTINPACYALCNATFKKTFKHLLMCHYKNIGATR
Kind of test: Muscarinic M2 competition binding assay ([3H]QNB, Sf9 membranes).

Test [3] has as its target T1, human M1 receptor. Description: Functional assay of M1 muscarinic receptors ([3H]inositol phosphate accumulation in Sf9 cells). Particulars: 100 μM carbachol with increasing amounts of compound (FIG. 3). It counts as cell-based. The protocol:
A functional assay of M1 muscarinic receptors was performed. M1 receptor activity was determined by measuring activation of the Gαq effector, phospholipase C-β. Recombinant human M1 receptor was expressed (48 h) from a baculovirus in Sf9 insect cells. The inositol lipid pool of cells was radiolabeled by incubating the cells overnight in inositol-free Grace's medium containing 1 μCi of myo-[^3H]inositol. The medium was supplemented with 50 mM HEPES, pH 7.4, and 10 mM LiCl (final concentration) and placed in a 27° C. bath for 10 min prior to assay. The assay was initiated by addition of the appropriate ligand(s) and incubations continued for 20 min. The assay was terminated by aspirating the medium and adding 750 μL of ice-cold 50 mM formic acid. After 30 min at 4° C., the samples were neutralized with 250 μL of 150 mM NH4OH. [^3H]Inositol phosphates were isolated by ion exchange chromatography on Dowex AG 1-X8 columns and quantitated by liquid scintillation counting. […] The data shown in FIG. 3 are the results of an experiment performed in triplicate.

Where a name gives a salt, the structure may show the parent alone. Read-outs that look alike come from different tables or passages of the source.

By Ki is commonly meant a dissociation constant, usually derived from enzyme kinetics or from competition with a known ligand.

In the case of `CCOC(=O)C1=C(O)[C@H]2CC[C@H](COCc3ccccc3)N(C1)C2` (relative stereo) [Compound 5, exo-8-Benzyloxymethyl-3-ethoxycarbonyl-4-hydroxy-1-azabicyclo[3.3.1]non-3-ene], the Ki was found to be 0.203 ± 0.083 µM in test [1] (read-out: hM1 receptor Ki) and 0.0843 ± 0.0081 µM in test [2] (read-out: hM2 receptor Ki). Besides, the “Ki fold greater than atropine at the human M2 receptor” value in test [2] (relative to atropine) is reported as 14 fold. Moreover, the “functional activity at muscarinic receptor” value in test [3] is “muscarinic receptor antagonist”.
In the case of `CCOC(=O)C1=C(O)[C@H]2CC[C@@H](COCc3ccccc3)N(C1)C2` (relative stereo) [Compound 6, endo-8-Benzyloxymethyl-3-ethoxycarbonyl-4-hydroxy-1-azabicyclo[3.3.1]non-3-ene], the results for the inhibition constant (Ki) in test [1] (read-out: hM1 receptor Ki) and in test [2] (read-out: hM2 receptor Ki) were 10.3 ± 2.38 µM and 7.35 ± 1.09 µM, respectively.
On to `CCOC(=O)C1=C(O)C2CCCN(C1)C2` (stereo not drawn) [Compound 4, 3-Ethoxycarbonyl-4-hydroxy-1-azabicyclo[3.3.1]non-3-ene], for which the figures for the inhibition constant (Ki) in test [1] (hM1 receptor Ki) and in test [2] (hM2 receptor Ki) were 1.01 ± 0.068 µM and 2.85 ± 0.179 µM, respectively.
Take `CCOC(=O)C1=C(O)C2CCC(CN(C)C)N(C1)C2` (stereo not drawn) [Compound 7, exo-8-Dimethylaminomethyl-3-ethoxycarbonyl-4-hydroxy-1-azabicyclo[3.3.1]non-3-ene]: the inhibition constant (Ki) in test [1] (read-out: hM1 receptor Ki) was 16.8 ± 15.2 µM; in test [2] (read-out: hM2 receptor Ki), 23.9 ± 13.7 µM.
With `CCOC(=O)C1=C(O)C2CCC(CN(C)C)N(C1)C2` (stereo not drawn) [Compound 8, endo-8-Dimethylaminomethyl-3-ethoxycarbonyl-4-hydroxy-1-azabicyclo[3.3.1]non-3-ene], the results for the Ki in test [1] (read-out: hM1 receptor Ki) and in test [2] (read-out: hM2 receptor Ki) were 12.4 ± 3.74 µM and 47.6 ± 14.8 µM, respectively.
With `O=C1CCN2CCCC1C2` (stereo not drawn) [Compound 9, 1-Azabicyclo[3.3.1]nonan-4-one], the inhibition constant (Ki) in test [1] (hM1 receptor Ki) and in test [2] (hM2 receptor Ki) was greater than 100 µM throughout.
In the case of `CN(C)CC1CCC2CN1CCC2=O` (stereo not drawn) [Compound 12, exo-8-Dimethylaminomethyl-1-azabicyclo[3.3.1]nonan-4-one-HCl], the Ki in test [1] (hM1 receptor Ki) and in test [2] (hM2 receptor Ki) was greater than 100 µM throughout.
For `CN(C)CC1CCC2CN1CCC2=O` (stereo not drawn) [Compound 13, endo-8-Dimethylaminomethyl-1-azabicyclo[3.3.1]nonan-4-one-HCl], the Ki in test [1] (read-out: hM1 receptor Ki) and in test [2] (read-out: hM2 receptor Ki) was greater than 100 µM each time.

Source of the values: patent US6875774B2, “Aza-bridged bicyclic amine derivatives for use as novel cholinergic receptor ligands” (The University of North Carolina, priority 2002, dated 2005).
